{
  "source": "PubChem BioAssay (NCI)",
  "note": "Where “and” joins values, the source holds several entries; their conditions need not be identical. Equal values may be shown once.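 Step 1: Grow cells in 96-well plates. Step 2: Expose to compound for 48 hours at 5 concentrations. Step 3: Interpolate endpoints linearly; if unreached, use highest concentration. The concentration for 50% growth inhibition is given as GI50. At the TGI there is no net growth.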",
  "data": [
    {"system": "BT-549 breast", "experiment": "inhibition of tumour cell growth, NCI panel, 48 h", "values": [
      {"molecule": "COc1cc(-c2cc(C(=O)Nc3nc4ccccc4s3)nc3cc(-c4ccccc4)nn23)cc(OC)c1OC", "GI50": "6.33 µM", "TGI": "47 µM"},
      {"molecule": "CS(=O)(=O)c1ccc(Oc2nccc(-c3c(-c4ccc(F)cc4)ncn3C3CCNCC3)n2)cc1", "GI50": "> 25 µM", "TGI": "> 25 µM"},
      {"molecule": "COC(=O)C/C(C)=C/[C@@H](O)[C@H]1O[C@@H]2CC/C(Cl)=C/C/C=C(/C)[C@H](OC(C)=O)CC(=O)O[C@@H]1C2", "GI50": "1.89 µM", "TGI": "7.73 µM"},
      {"molecule": "CCN(Cc1ccc(F)cc1F)c1ccc(CO)c(Cl)c1", "GI50": "14.3 µM", "TGI": "34.8 µM"},
      {"molecule": "N#Cc1c2ccccc2c2nnc3cc(C(F)(F)F)ccc3n12", "GI50": "57.2 µM", "TGI": "> 100 µM"},
      {"molecule": "COc1ccc(/C=C/C(=O)/C=C(/C=C/c2ccc(OC)c(OC)c2)OB(F)F)cc1OC", "GI50": "1.13 µM", "TGI": "2.68 µM"},
      {"molecule": "O=C1C(Cl)=C(Oc2ccccc2)C(=O)c2ccccc21", "GI50": "2.86 µM", "TGI": "9.3 µM"},
      {"molecule": "COc1ccc2c(CN3CCC(CO)CC3)cc3cc4c(cc3c2c1)OCO4", "GI50": "0.6 µM", "TGI": "3.87 µM"},
      {"molecule": "COc1ccc(-n2c(-c3ccc(NC(=O)CCCl)cc3)nnc2-c2cc(OC)c(OC)c(OC)c2)cc1", "GI50": "3.14 µM", "TGI": "13.8 µM"},
      {"molecule": "NCCCn1c2c(c3ccccc3c1=O)C(=O)c1cc3c(cc1-2)OCO3", "GI50": "< 0.01 µM", "TGI": "1.77 µM"},
      {"molecule": "COC(=O)c1ccc(-c2nc3cc(F)c(F)cc3nc2C#N)cc1", "GI50": "8.24 µM", "TGI": "16.6 µM"},
      {"molecule": "COc1ccc(/C=C\\c2cc(OC)c(OC)c(OC)c2)cc1NC(=O)[C@@H](N)CO", "GI50": "< 0.0139 µM", "TGI": "0.085 µM"},
      {"molecule": "CCOC(=O)c1sc2ncn(Cc3cccc(Cl)c3)c(=O)c2c1C", "GI50": "17.2 µM", "TGI": "30.9 µM"},
      {"molecule": "O=C(Nc1ncc([N+](=O)[O-])s1)c1cccc([N+](=O)[O-])c1", "GI50": "2.78 µM", "TGI": "11 µM"},
      {"molecule": "O=C1NC(=O)[C@@H](c2cn3c4c(cccc24)CCC3)[C@@H]1c1c[nH]c2ccccc12", "GI50": "0.522 µM and 1.1 µM", "TGI": "> 10 µM and 17.7 µM"},
      {"molecule": "CCN(CC)c1ccc2[nH]c3c(C(N)=O)cc(=O)c(=O)c=3oc2c1", "GI50": "1.7 µM", "TGI": "5.17 µM"},
      {"molecule": "O=C(CCl)Nc1ccccc1SCc1cc(Cl)cc2c1OCOC2", "GI50": "3.52 µM", "TGI": "11.5 µM"},
      {"molecule": "CC1=C(C(=O)Nc2ccc(F)c(Cl)c2)C(c2cccc(O)c2)NC(=S)N1", "note": "(configuration not stated)", "GI50": "12.1 µM", "TGI": "36.8 µM"},
      {"molecule": "COc1cc(/C=C2\\CC(C)CC3C2=NN(c2ccccc2)C3c2cc(OC)c(OC)c(OC)c2)cc(OC)c1OC", "note": "(configuration not stated)", "GI50": "10.1 µM", "TGI": "39.9 µM"},
      {"molecule": "O=C(CSc1nc2ccc([N+](=O)[O-])cc2[nH]1)Nc1cccc(C(F)(F)F)c1", "GI50": "2.63 µM", "TGI": "11.6 µM"},
      {"molecule": "C[C@@H](Oc1cc(-c2cnn(C3CCNCC3)c2)cnc1N)c1c(Cl)ccc(F)c1Cl", "GI50": "5.24 µM", "TGI": "> 10 µM"},
      {"molecule": "Cc1cc(S(=O)(=O)Nc2nnc(-c3ccco3)c(-c3ccco3)n2)c(SCc2ccccc2)cc1Cl", "GI50": "25.3 µM", "TGI": "50.2 µM"},
      {"molecule": "COc1cccc(-c2nc(-c3ccc(NS(=O)(=O)c4ccccc4)cc3)[nH]c2-c2ccnc(Br)c2)c1", "GI50": "2.72 µM", "TGI": "9.21 µM"},
      {"molecule": "CN(C)CCCNC(=O)c1cc(NC(=O)c2cc(NC(=O)CCCN3c4ccccc4C=Cc4ccccc43)cn2C)cn1C", "GI50": "4.19 µM", "TGI": "69.8 µM"},
      {"molecule": "Cc1ccc(C)c(-n2c(-c3ccc(Br)cc3)csc2=NC(=O)c2ccccc2F)c1", "GI50": "> 100 µM", "TGI": "> 100 µM"},
      {"molecule": "Clc1ccc(N2COOC3(OOC2)C2CC4CC(C2)CC3C4)cc1", "GI50": "5.96 µM", "TGI": "> 58 µM"},
      {"molecule": "O=P(Oc1ccccc1)(Oc1ccccc1)C(O)c1ccccc1", "note": "(configuration not stated)", "GI50": "> 100 µM", "TGI": "> 100 µM"},
      {"molecule": "OCc1ccc(N(Cc2ccc(F)cc2)C2CCC2)cc1Cl", "GI50": "17.7 µM", "TGI": "32.8 µM"},
      {"molecule": "O=C(Nc1cccc(NS(=O)(=O)c2ccc(F)cc2)c1)c1ccc(-c2ccccc2)cc1", "GI50": "2.99 µM", "TGI": "8.27 µM"},
      {"molecule": "Cc1ccc2c(/C=C/C(=O)c3cc(CN4CCOCC4)c(O)c4nc(C)ccc34)cc(CN3CCOCC3)c(O)c2n1", "GI50": "1.22 µM", "TGI": "4.7 µM"},
      {"molecule": "O=C(Oc1cccc(Nc2ncnc3ccccc23)c1)c1ccccc1Cl", "GI50": "24.8 µM", "TGI": "62.3 µM"},
      {"molecule": "CC(C)(C)[Si](C)(C)OC1[C@@H](O[Si](C)(C)C(C)(C)C)[C@@H](CNC(=O)NC(=O)NC(=O)CI)O[C@H]1n1cnc2c(NC(=O)Nc3ccccc3)ncnc21", "note": "(some centres not stated)", "GI50": "6.89 µM", "TGI": "13.9 µM"},
      {"molecule": "COc1cccc2c(Nc3ccc(C(=O)NCCNCCO)cc3)cc(-c3ccccc3)nc12", "GI50": "37.3 µM", "TGI": "> 100 µM"},
      {"molecule": "COc1cc2c3c(n(CCCO)c(=O)c2cc1OC)-c1cc2c(cc1C3=O)OCO2", "GI50": "2.22 µM", "TGI": "49 µM"},
      {"molecule": "C=C(CN1CCc2ccccc2C1)c1ccc(/C=C/C(=O)Nc2ccccc2N)cc1", "GI50": "10.3 µM", "TGI": "> 100 µM"}
    ]},
    {"system": "MDA-N", "experiment": "inhibition of tumour cell growth, NCI panel, 48 h", "units": {"TGI": "µM"}, "values": [
      {"molecule": "O=C1CC2(CCCc3sccc32)C(=O)N1", "note": "(configuration not stated)", "TGI": "> 100"},
      {"molecule": "O=C1NC(=O)C2=C1CCC2O", "note": "(configuration not stated)", "TGI": "> 100"}
    ]}
  ]
}
